From article PMC9370035, “Identification of 3-Oxindole Derivatives as Small Molecule HIV-1 Inhibitors Targeting Tat-Mediated Viral Transcription” (Molecules, 2022) come the findings set out here.

The structures appear in SMILES notation.

In data set [1] the test system is HIV-1NL4-3. Kind of data set: HIV-1 infectivity assay in TZM-bl cells (F-Luc under HIV-1 LTR). The following applies: Human immunodeficiency virus 1, NL43, TZM-bl; for inhibition at 3 µM: 48 h, read-out: Inhibition of HIV-1 Infectivity (%), TZM-bl cells, 3 μM, HIV-1 NL4-3 at MOI of 1, 48 h; for IC50: read-out: IC50 (inhibition of HIV-1 infection). Type of data set: cell-based. From the text:
TZM-bl cells (also referred as JC53BL-13) expressing human CD4, CXCR4, and CCR5 in order to facilitate HIV-1 infection, which contain the firefly luciferase (F-Luc) gene under the control of HIV-1 long terminal repeat (LTR) promoter was used to determine inhibitory effect of the compounds on HIV-1 infection, as described previously with minor modifications. […] Without replacement of a culture medium, the cells were then infected with the HIV-1NL4-3 strain at a multiplicity of infection (MOI) of 1 to determine the exact inhibitory effect of compounds on a single round infection. After 48 h, the inhibitory effect of the compounds was determined using a Bright Glo luciferase assay kit (Promega). The infectivity data are presented as a percentage relative to the DMSO control (vehicle). The inhibitory effects of the compounds on viral replication were determined with some minor modifications, as described previously. […] PBMCs were pre-activated with phytohemagglutinin M (PHA-M) for 3 days. The pre-activated 4 × 10^5 of PBMCs were washed with fresh media to remove excess PHA-M and then infected with HIV-1NL4-3 or HIV-1AD8 as that of A3.01 infection.

Data set [2] in a line: Cell viability (resazurin-based PrestoBlue) in parallel with infectivity assay. The following applies: human, TZM-bl cells; for viability at 48 h, 3 µM: with infection of HIV-1 NL4-3 at MOI of 1; for CC50 at 48 h: serial dilution starting from 100 μM, read-out: CC50 (concentration that reduces cell viability by 50%). (In general: Resazurin is reduced to fluorescent resorufin, in cell work by metabolically active cells.)

A further data set deals with TZM-bl cells. The description is as above. The following applies: 3 μM, with infection of HIV-1 NL4-3 at MOI of 1.
In data set [3] the test system is HIV-1NL4-3. Kind of data set: HIV-1 replication assay (p24 […]) in A3.01 T cell line. Type of data set: cell-based. Conditions: A3.01 cells, HIV-1NL4-3 MOI 0.1, 1.5 μM, 72 h. The procedure:
(§1) TZM-bl cells (also referred as JC53BL-13) expressing human CD4, CXCR4, and CCR5 in order to facilitate HIV-1 infection, which contain the firefly luciferase (F-Luc) gene under the control of HIV-1 long terminal repeat (LTR) promoter was used to determine inhibitory effect of the compounds on HIV-1 infection, as described previously with minor modifications. In brief, 1 × 10^4 cells were cultured in 96-well plates for 24 h and then treated with compounds at a final concentration of 3 μM (Figure 1A) or with 1:2 serially diluted compounds at concentrations ranging from 0 to 25 μM (dose-response assay; Figure 1B and Table 2). Without replacement of a culture medium, the cells were then infected with the HIV-1NL4-3 strain at a multiplicity of infection (MOI) of 1 to determine the exact inhibitory effect of compounds on a single round infection. After 48 h, the inhibitory effect of the compounds was determined using a Bright Glo luciferase assay kit (Promega). The infectivity data are presented as a percentage relative to the DMSO control (vehicle). The inhibitory effects of the compounds on viral replication were determined with some minor modifications, as described previously. In brief, 5 × 10^4 cells/ well of A3.01 cells were infected with HIV-1NL4-3 at an MOI of 0.1 with the spinoculation at 300 g for 2 h at 25 °C. PBMCs were pre-activated with phytohemagglutinin M (PHA-M) for 3 days. The pre-activated 4 × 10^5 of PBMCs were washed with fresh media to remove excess PHA-M and then infected with HIV-1NL4-3 or HIV-1AD8 as that of A3.01 infection. After infection, the infectious media were replaced with fresh media (supplemented with international 10 units (IU)/mL of IL-2 for PBMCs containing 1.5 μM of compounds. At 72 h after infection, the inhibitory effect of the compounds on viral replication was determined by measuring the amount of p24, an HIV capsid protein, using an HIV-1 p24 […]™ kit (PerkinElmer, Waltham, MA, USA). Cell viability was determined by using the resazurin-based PrestoBlue™ cell viability reagent (Thermo Fisher Scientific, Waltham, MA, USA) according to the manufacturer’s protocols.

Data set [4] relates to HIV-1NL4-3. The experiment in a line: HIV-1 replication assay (p24 […]) in PBMCs, CXCR4 tropic strain. The following applies: HIV-1NL4-3 MOI 0.1, 1.5 μM, 72 h. It is filed as cell-based. The protocol:
as §1

The next data set relates to HIV-1Ad8. The experiment in a line: HIV-1 replication assay (p24 […]) in PBMCs, CCR5 tropic strain. Type of data set: cell-based. Conditions: CCR5 tropic HIV-1Ad8 MOI 0.1, 1.5 μM, 72 h. The protocol: TZM-bl cells (also referred as JC53BL-13) expressing human CD4, CXCR4, and CCR5 in order to facilitate HIV-1 infection, which contain the firefly luciferase (F-Luc) gene under the control of HIV-1 long terminal repeat (LTR) promoter was used to determine inhibitory effect of the compounds on HIV-1 infection, as described previously with minor modifications. In brief, 1 × 10^4 cells were cultured in 96-well plates for 24 h and then treated with compounds at a final concentration of 3 μM (Figure 1A) or with 1:2 serially diluted compounds at concentrations ranging from 0 to 25 μM (dose-response assay; Figure 1B and Table 2). Without replacement of a culture medium, the cells were then infected with the HIV-1NL4-3 strain at a multiplicity of infection (MOI) of 1 to determine the exact inhibitory effect of compounds on a single round infection. After 48 h, the inhibitory effect of the compounds was determined using a Bright Glo luciferase assay kit (Promega). The infectivity data are presented as a percentage relative to the DMSO control (vehicle). The inhibitory effects of the compounds on viral replication were determined with some minor modifications, as described previously. In brief, 5 × 10^4 cells/ well of A3.01 cells were infected with HIV-1NL4-3 at an MOI of 0.1 with the spinoculation at 300 g for 2 h at 25 °C. PBMCs were pre-activated with phytohemagglutinin M (PHA-M) for 3 days. […]

The test system of data set [5] is Tat-mediated HIV-1 transcription. The experiment in a line: microbe, parasite or virus in culture. Type of data set: cell-based. The following applies: for IC50: Human immunodeficiency virus 1, 24 h, read-out: IC50 (inhibition of Tat-mediated HIV-1 transcription). The protocol:
(§2) bl-DTR (TZM-bl-derived dual Tat reporter) cells derived from TZM-bl cells by insertion of two doxycycline-inducible lentiviral vector-expressing flag-tagged tat and Renilla-luciferase (R-Luc) genes were used to determine simultaneously both activities of Tat-mediated HIV-1 transcription and general cellular transcription, as described previously. Determination of the inhibitory effect of the compounds on Tat-mediated transcription was performed as described previously. In brief, 1 × 10^4 of bl-DTR cells cultured in 96-well plates were treated with compounds at a final concentration of 3 μM (Figure 3C) or with 1:2 serially diluted compounds at concentrations ranging from 0 to 25 μM (Figure 4 and Table 3). Subsequently, doxycycline was treated at a final concentration of 50 ng/mL to induce Tat-mediated F-Luc and R-Luc. At 24 h after treatment, the activities of F-Luc and R-Luc were determined by using a Dual-Glo™ luciferase assay system (Promega, Madison, WI, USA) according to the manufacturer’s protocols. The data are presented as a percentage relative to the DMSO control (vehicle) in the presence of doxycycline, and the experiment was performed in triplicate.

In the next data set the test system is Tat protein. The experiment in a line: Cellular expression level of Tat protein. Type of data set: cell-based, HIV-1. The following applies: manuscript in preparation [26].
Another data set has as its system Tat. The experiment in a line: Nuclear localization of Tat. The following applies: manuscript in preparation [26]. Type of data set: cell-based, HIV-1.
The target in the next data set is Tat and cyclin T1 (Human immunodeficiency virus type 1 group M subtype B, UniProt P04608). Kind of data set: Interaction between Tat and cyclin T1. Conditions: manuscript in preparation [26].
Sequence of Tat and cyclin T1 (P04608 whole entry): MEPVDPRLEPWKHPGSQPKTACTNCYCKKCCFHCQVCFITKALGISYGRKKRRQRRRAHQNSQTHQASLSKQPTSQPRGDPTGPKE
A further data set has as its target Tat with TAR RNA (Human immunodeficiency virus type 1 group M subtype B, UniProt P04608). The experiment in a line: Association of Tat with TAR RNA. Set-up: species or system HIV-1. Conditions: manuscript in preparation [26].
Data set [6] deals with general cellular transcription. Kind of data set: R-Luc activity in bl-DTR cells (general cellular transcription). It is filed as cell-based. Conditions: high dosages (12.5 μM and 25 μM). The procedure: as §2
The target of data set [7] is HIV-1 reverse transcriptase (RTase) (Human immunodeficiency virus type 1 group M subtype B, UniProt P12497). The following applies: A3.01 cells, 10 μM, HIV-1NL4-3, 16 h after infection. From the text:
(forward) and 5′-[…] (reverse). […] (forward) and 5′-[…] (reverse).

Sequence of Tat with TAR RNA (P04608 whole entry): as above

Consider `COC(=O)C1(C/C=C/Cl)Nc2cc(C)cc(C)c2C1=O` (centres unmarked) [Compound 6f, Methyl (E)-2-(3-chloroallyl)-4,6-dimethyl-3-oxindole-2-carboxylate], for which the melting point – broadly, the temperature, or range, at which the solid turns liquid – was above 300 °C. In the data set with HIV-1NL4-3 [1], the inhibition (usually the change of the read-out against control, counted positive when it falls) at 3 µM turned out to be 91.9 ± 1.78% and the IC50 – broadly, the concentration needed to halve the response being measured – came to 458 ± 22.7 nM. For the same molecule, in data set [2], the viability (usually a read-out of living cells in per cent, often relative to untreated cells) at 48 h, 3 µM amounted to 93 ± 5.39% and the CC50 at 48 h is 51000 ± 4440 nM. Also, in the data set with TZM-bl cells, the “Cell Viability (%)” value is recorded as “without cytotoxicity”. Further, the “Inhibitory effect on viral replication (p24)” value (shortened to “Inhibitory effect”) in the data set on HIV-1NL4-3 [3] was “near-complete abrogation”. Further, the “Inhibitory effect” value in the data set on HIV-1NL4-3 [4] is “near-complete abrogation”. Also, in the data set with HIV-1Ad8, the “Inhibitory effect” value was “inhibited replication”. Further, the 50% inhibitory concentration (IC50) in [5] is 1200 ± 40 nM. Further, the “Concentration of complete inhibition of Tat-induced transcriptional activity” value in [5] (bl-DTR cells, concentration response) is listed as “approximately 6 μM”. Also, in the data set on Tat protein, the “Inhibition of cellular expression level of Tat protein” value is listed as “did not inhibit”. In addition, the “Inhibition of nuclear localization of Tat” value in the data set on Tat was “did not inhibit”. At Tat and cyclin T1, the “Inhibition of interaction between Tat and cyclin T1” value is “did not inhibit”. Besides, the “Inhibition of association of Tat with TAR RNA” value on Tat with TAR RNA was “did not inhibit”.
Consider `COC(=O)C1(CC=C(Cl)Cl)Nc2cc(C)cc(C)c2C1=O` (centres unmarked) [Compound 6g, Methyl 2-(3,3-dichloroallyl)-4,6-dimethyl-3-oxindole-2-carboxylate], for which the melting point is above 300 °C. Besides, in the data set on HIV-1NL4-3 [1], the inhibition at 3 µM was found to be 85.4 ± 1.44% and the IC50 was found to be 1280 ± 959 nM. Moreover, in data set [2], the viability at 48 h, 3 µM turned out to be 87.9 ± 0.82% and the CC50 at 48 h was determined as 43600 ± 10500 nM. Besides, in the data set with HIV-1NL4-3 [3], the “Inhibitory effect” value is “half inhibition”. Further, the “Inhibitory effect” value in the data set on HIV-1NL4-3 [4] was “half inhibition”. Also, the “Inhibitory effect” value with HIV-1Ad8 was “inhibited replication”. The IC50 in data set [5] was determined as 2850 ± 630 nM. Further, in data set [6], the R-Luc activity result is given as “decrease in R-Luc activity”. For the same molecule, in the data set with Tat protein, the “Inhibition of cellular expression level of Tat protein” value was “did not inhibit”. Moreover, the “Inhibition of nuclear localization of Tat” value with Tat is reported as “did not inhibit”. Further, the “Inhibition of interaction between Tat and cyclin T1” value on Tat and cyclin T1 is listed as “did not inhibit”. For the same molecule, the “Inhibition of association of Tat with TAR RNA” value on Tat with TAR RNA is recorded as “did not inhibit”.
Regarding `O=C1Nc2ccc(Cl)cc2[C@@](C#CC2CC2)(C(F)(F)F)O1` [EFV, efavirenz, reference compound], the IC50 with HIV-1NL4-3 [1] was below 50 nM. In addition, in [2], the CC50 at 48 h came out at 34200 ± 590 nM. Further, the “Inhibition of RTase activity (level of HIV-1 RT product)” value in [7] is given as “inhibited”.
